Legend:
KRAS(G12D)/SOS1 = biological target: T1, KRAS(G12D)/SOS1 (Homo sapiens, UniProt P01116, G12D); assay: KRAS(G12D)/SOS1 homogeneous time-resolved fluorescence (HTRF) assay; assay type: binding; settings: absence of GTP; 4° C., 3 hr
T1 construct: purchased Cisbio 63ADK000CB17PEH
In short: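 HTRF kit assay of compound-blocked KRAS(G12D)–SOS1 interaction, run without GTP. Compounds were tested as 3-fold dilutions from 20 µM to 1.02 nM and incubated with the reaction components for 3 hr at 4 °C, sealed. IC50 was taken as the concentration giving 50% of maximal inhibition.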

[1] = system: AGS gastric carcinoma cells [heterozygous G12D]; assay: Cancer cell line proliferation (CellTiter-Glo), AGS; assay type: cell-based; settings: Homo sapiens, 72 hr treatment, read-out: AGS CTG (EC50)
In short: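 A 72 hr proliferation format is used: cells at 4,000/well, pre-grown 72 hr, then treated at 37° C./5% CO2 with 0.5% DMSO final. CellTiter-Glo measures viable cells, from which EC50 is calculated.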

[2] = system: SW1990 pancreatic adenocarcinoma cells [homozygous G12D]; assay: Cancer cell line proliferation (CellTiter-Glo), SW1990; assay type: cell-based; settings: Homo sapiens, 72 hr treatment, read-out: SW1990 CTG (EC50)
Description: The following cancer cell lines were employed: AGS gastric carcinoma [heterozygous G12D](ATCC, CRL-1739); A-427 lung carcinoma [heterozygous G12D](ATCC, HTB-53); ASPC1 pancreatic adenocarcinoma [homozygous G12D](ATCC, CRL-1682) and SW1990 pancreatic adenocarcinoma [homozygous G12D](ATCC CRL-2172). Cell lines were cultured essentially according to ATCC recommendations.
AGS, A-427, ASPC1, SW1990, and GP2D cells were plated in 96-well tissue culture plates at 4,000 cells/well and incubated at 37° C./5% CO2 for 72 hr in 100 μl of media. 3-fold serial dilutions of each test compound were prepared ranging from 20 μM to 1.02 nM. Each cell line was then treated with test compounds at various concentrations with a final concentration of 0.5% DMSO/well, and then incubated at 37° C./5% CO2 for 72 hr. 100 µl of CellTiter-Glo® Reagent (Promega Corporation, Madison, WI) was added to each well and processed according manufacturer's protocol. Results were analyzed and EC50 values were calculated in GraphPad 7 software.

T1 sequence (P01116 1-188 isoform P01116-2 G12D): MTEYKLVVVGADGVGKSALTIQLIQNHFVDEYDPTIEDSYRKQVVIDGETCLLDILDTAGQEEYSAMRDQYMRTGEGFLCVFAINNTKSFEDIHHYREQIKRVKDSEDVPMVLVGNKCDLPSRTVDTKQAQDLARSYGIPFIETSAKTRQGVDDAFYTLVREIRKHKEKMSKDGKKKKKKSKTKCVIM

SMILES	IC50 (KRAS(G12D)/SOS1)	EC50 [1]	EC50 [2]
C#Cc1c(F)ccc2cc(O)cc(-c3nc(OC)c4c(N5CC6CCC(C5)N6)nc(OCC5(CN6CCN(CC7CCN(Cc8ccc(-n9c(C(=O)NCC(F)(F)F)nnc9-c9cc(C(C)C)c(O)cc9O)cc8)CC7)CC6)CC5)nc4c3F)c12 [Compound 168]	< 100 nM	< 100 nM	< 100 nM
C#Cc1c(F)ccc2cc(O)cc(-c3nc(OC)c4c(N5CC6CCC(C5)N6)nc(OCC5(CN6CCN(CC7CCN(Cc8ccc(-n9c(C(=O)NCC)nnc9-c9cc(C(C)C)c(O)cc9O)cc8)CC7)CC6)CC5)nc4c3F)c12 [Compound 169]	< 100 nM	< 100 nM	< 100 nM
C#Cc1c(F)ccc2cc(O)cc(-c3nc(OC)c4c(N5CC6CCC(C5)N6)nc(OCC5(CN6CCN(C7CCN(Cc8ccc9c(c8)CN(C(=O)c8cc(O)c(C(C)C)cc8O)C9)CC7)CC6)CC5)nc4c3F)c12 [Compound 170]	< 100 nM	< 100 nM	< 100 nM
C#Cc1c(F)ccc2cc(O)cc(-c3ncc4c(N5CC6CCC(C5)N6)nc(OCC5CN(Cc6ccc7c(c6)CN(C(=O)c6cc(C(C)C)c(O)cc6O)C7)C5)nc4c3F)c12 [Compound 172]	< 100 nM	100 to 1000 nM	100 to 1000 nM
C#Cc1c(F)ccc2cc(O)cc(-c3ncc4c(N5CC6CCC(C5)N6)nc(OCc5ccc6c(c5)CN(C(=O)c5cc(C(C)C)c(O)cc5O)C6)nc4c3F)c12 [Compound 173]	100 to 1000 nM	100 to 1000 nM	> 1000 nM
C#Cc1c(F)ccc2cc(O)cc(-c3ncc4c(N5CC6CCC(C5)N6)nc(OCC5CN(Cc6ccc(-n7c(C(=O)NC(C)C(F)(F)F)nnc7-c7cc(C(C)C)c(O)cc7O)cc6)C5)nc4c3F)c12 (stereo not drawn) [Compound 174]	< 100 nM	100 to 1000 nM	> 1000 nM
C#Cc1c(F)ccc2cc(O)cc(-c3ncc4c(N5CC6CCC(C5)N6)nc(OCC5CN(Cc6ccc(-n7c(C(=O)NCC(F)(F)F)nnc7-c7cc(C(C)C)c(O)cc7O)cc6)C5)nc4c3F)c12 [Compound 175]	< 100 nM	100 to 1000 nM	100 to 1000 nM
C#Cc1c(F)ccc2cc(O)cc(-c3ncc4c(N5CC6CCC(C5)N6)nc(OC5CN(Cc6ccc(-n7c(C(=O)NC(C)C(F)(F)F)nnc7-c7cc(C(C)C)c(O)cc7O)cc6)C5)nc4c3F)c12 (stereo not drawn) [Compound 176]	100 to 1000 nM	100 to 1000 nM	> 1000 nM
C#Cc1c(F)ccc2cc(O)cc(-c3ncc4c(N5CC6CCC(C5)N6)nc(OCC5(CN6CCN(C7CN(Cc8ccc9c(c8)CN(C(=O)c8cc(C(C)C)c(O)cc8O)C9)C7)CC6)CC5)nc4c3F)c12 [Compound 177]	< 100 nM	< 100 nM	< 100 nM
C#Cc1c(F)ccc2cc(O)cc(-c3nc(OC)c4c(N5CC6CCC(C5)N6)nc(OCC5(CN6CCN(C7CCN(Cc8ccc(-n9c(C(=O)NC(C)C(F)(F)F)nnc9-c9cc(C(C)C)c(O)cc9O)cc8)CC7)CC6)CC5)nc4c3F)c12 (stereo not drawn) [Compound 178]	< 100 nM	< 100 nM	< 100 nM
C#Cc1c(F)ccc2cc(O)cc(-c3ncc4c(N5CC6CCC(C5)N6)nc(OC5CN(Cc6ccc(-n7c(C(=O)NCC(F)(F)F)nnc7-c7cc(C(C)C)c(O)cc7O)cc6)C5)nc4c3F)c12 [Compound 179]	100 to 1000 nM	100 to 1000 nM	> 1000 nM
C#Cc1c(F)ccc2cc(O)cc(-c3ncc4c(N5CC6CCC(C5)N6)nc(OCC5(CN6CCC(N7CCN(Cc8ccc9c(c8)CN(C(=O)c8cc(C(C)C)c(O)cc8O)C9)CC7)CC6)CC5)nc4c3F)c12 [Compound 180]	< 100 nM	< 100 nM	< 100 nM
C#Cc1c(F)ccc2cc(O)cc(-c3ncc4c(N5CC6CCC(C5)N6)nc(OCC5(CN6CCC(N7CCN(Cc8ccc(-n9c(C(=O)NC(C)C(F)(F)F)nnc9-c9cc(C(C)C)c(O)cc9O)cc8)CC7)CC6)CC5)nc4c3F)c12 (stereo not drawn) [Compound 181]	< 100 nM	< 100 nM	< 100 nM
C#Cc1c(F)ccc2cc(O)cc(-c3nc(OC)c4c(N5CC6CCC(C5)N6)nc(OCC5(CN6CCC(C7CCN(Cc8ccc(-n9c(C(=O)NC(C)C(F)(F)F)nnc9-c9cc(C(C)C)c(O)cc9O)cc8)CC7)CC6)CC5)nc4c3F)c12 (stereo not drawn) [Compound 182]	< 100 nM	< 100 nM	< 100 nM
C#Cc1c(F)ccc2cc(O)cc(-c3ncc4c(N5CC6CCC(C5)N6)nc(OCC5(CN6CCC7(CCN(Cc8ccc(-n9c(C(=O)NC(C)C(F)(F)F)nnc9-c9cc(C(C)C)c(O)cc9O)cc8)CC7)CC6)CC5)nc4c3F)c12 (stereo not drawn) [Compound 183]	< 100 nM	< 100 nM	< 100 nM
C#Cc1c(F)ccc2cc(O)cc(-c3ncc4c(N5CC6CCC(C5)N6)nc(OCC5(CN6CCC7(CCN(Cc8ccc9c(c8)CN(C(=O)c8cc(C(C)C)c(O)cc8O)C9)CC7)CC6)CC5)nc4c3F)c12 [Compound 184]	< 100 nM	< 100 nM	< 100 nM
C#Cc1c(F)ccc2cc(O)cc(-c3ncc4c(N5CC6CNC(C6)C5)nc(OCC5(CN6CCC(C7CCN(Cc8ccc(-n9c(C(=O)NC(C)C(F)(F)F)nnc9-c9cc(C(C)C)c(O)cc9O)cc8)CC7)CC6)CC5)nc4c3F)c12 (stereo not drawn) [Compound 185]	100 to 1000 nM	100 to 1000 nM	100 to 1000 nM
C#Cc1c(F)ccc2cc(O)cc(-c3nc(OC)c4c(N5CC6CCC(C5)N6)nc(OCC5(CN6CCC(C7CCN(Cc8ccc9c(c8)CN(C(=O)c8cc(C(C)C)c(O)cc8O)C9)CC7)CC6)CC5)nc4c3F)c12 [Compound 186]	< 100 nM	< 100 nM	< 100 nM
C#Cc1c(F)ccc2cc(O)cc(-c3ncc4c(N5CC6CNC(C6)C5)nc(OCC5(CN6CCC(C7CCN(Cc8ccc9c(c8)CN(C(=O)c8cc(O)c(C(C)C)cc8O)C9)CC7)CC6)CC5)nc4c3F)c12 (stereo not drawn) [Compound 187]	100 to 1000 nM	100 to 1000 nM	> 1000 nM
C#Cc1c(F)ccc2cc(O)cc(-c3ncc4c(N5CC6CNC(C6)C5)nc(OCC5(CN6CCN(C7CCN(Cc8ccc(-n9c(C(=O)NC(C)C(F)(F)F)nnc9-c9cc(C(C)C)c(O)cc9O)cc8)CC7)CC6)CC5)nc4c3F)c12 (stereo not drawn) [Compound 188]	100 to 1000 nM	100 to 1000 nM	100 to 1000 nM
C#Cc1c(F)ccc2cc(O)cc(-c3nc(OC)c4c(N5CC6CNC(C6)C5)nc(OCC5(CN6CCN(Cc7ccc(-n8c(C(=O)NCC)nnc8-c8cc(C(C)C)c(O)cc8O)cc7)CC6)CC5)nc4c3F)c12 (stereo not drawn) [Compound 189]	< 100 nM	< 100 nM	< 100 nM
C#Cc1c(F)ccc2cc(O)cc(-c3nc(OC)c4c(N5CC6CCC(C5)N6)nc(OCC5(CN6CCN(Cc7ccc8c(c7)CN(C(=O)c7cc(C(C)C)c(O)cc7O)C8)CC6)CC5)nc4c3F)c12 [Compound 190]	< 100 nM	< 100 nM	< 100 nM
C#Cc1c(F)ccc2cc(O)cc(-c3nc(OC)c4c(N5CC6CCC(C5)N6)nc(OCC5(CNCC6CN(Cc7ccc8c(c7)CN(C(=O)c7cc(C(C)C)c(O)cc7O)C8)CCO6)CC5)nc4c3F)c12 (stereo not drawn) [Compound 191]	< 100 nM	< 100 nM	100 to 1000 nM
C#Cc1c(F)ccc2cc(O)cc(-c3nc(OC)c4c(N5CC6CCC(C5)N6)nc(OCC5(CN6CCOC(CNCc7ccc8c(c7)CN(C(=O)c7cc(C(C)C)c(O)cc7O)C8)C6)CC5)nc4c3F)c12 (stereo not drawn) [Compound 192]	> 1000 nM	100 to 1000 nM	100 to 1000 nM
C#Cc1c(F)ccc2cc(O)cc(-c3ncc4c(N5CC6CCC(C5)N6)nc(OCC5CN(C6CN(Cc7ccc8c(c7)CN(C(=O)c7cc(C(C)C)c(O)cc7O)C8)C6)C5)nc4c3F)c12 [Compound 193]	< 100 nM	100 to 1000 nM	100 to 1000 nM
C#Cc1c(F)ccc2cc(O)cc(-c3ncc4c(N5CC6CCC(C5)N6)nc(OCC5CN(CC6(CNc7ccc8c(c7)CN(C(=O)c7cc(C(C)C)c(O)cc7O)C8)CC6)C5)nc4c3F)c12 [Compound 194]	< 100 nM	100 to 1000 nM	100 to 1000 nM

Source: patent US20260070929A1, “METHODS AND COMPOSITIONS FOR MODULATING KRAS(G12D)” (Ranok Therapeutics (Hangzhou) Co. LTD., priority 2022, published 2026)
